Experiments:
Conditions in all cases: 48 h
SEM cells [1] = experiment: cell viability relative to DMSO control; higher = less cytotoxic
Summary of the method: (§1)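 Viability is a per-plate percentage relative to DMSO wells, with cell-free wells as background. CellTiter-Glo One luminescence was read after 48 h at 37°C on 1536-well plates (5 μl) of NOMO1 or SEM (500 cells/well) or P12-Ichikawa (1000 cells/well) leukemia cells. The cells had been adapted for at least four passages in each medium and pin-dosed with library compounds in DMSO from 47 μM to 0.79 nM in 11 threefold steps.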

P12-Ichikawa [2] = experiment: as above
Summary of the method: as §1

SEM cells [3] = experiment: AUC of viability dose-response curve (% viability x log10 dose units); higher = less sensitive
Summary of the method: (§2)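 Area under the curve was integrated by trapezoidal rule from a log-logistic fit of normalised viability, with curves exceeding full viability scaled and quality-control failures removed. The fit had four parameters over log10 doses. Viability came from CellTiter-Glo One luminescence, normalised per plate to DMSO and cell-free wells, after leukemia cells adapted to each medium (500 or 1000 cells/well, 1536-well plates) were exposed to library compounds in DMSO for 48 h at 37°C. The 11 threefold doses ran from 47 μM to 0.79 nM.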

P12-Ichikawa [4] = experiment: as above
Summary of the method: as §2

NOMO1 [5] = experiment: as above
Summary of the method: as §2

NOMO1 [6] = experiment: cell viability relative to DMSO control; higher = less cytotoxic
Summary of the method: as §1

CCOC(=O)[C@H](CCc1ccccc1)N[C@@H](C)C(=O)N1[C@H](C(=O)O)C[C@@H]2CCC[C@@H]21
Conditions | cell viability [%]
P12-Ichikawa [2], HPLM + 10% dialyzed FBS, 0.000781 µM | 117
P12-Ichikawa [2], HPLM + 10% dialyzed FBS, 0.00234 µM | 124
P12-Ichikawa [2], HPLM + 10% dialyzed FBS, 0.00702 µM | 127
P12-Ichikawa [2], HPLM + 10% dialyzed FBS, 0.0211 µM | 124
P12-Ichikawa [2], HPLM + 10% dialyzed FBS, 0.0632 µM | 126
P12-Ichikawa [2], HPLM + 10% dialyzed FBS, 0.19 µM | 128
P12-Ichikawa [2], HPLM + 10% dialyzed FBS, 0.569 µM | 123
P12-Ichikawa [2], HPLM + 10% dialyzed FBS, 1.71 µM | 126
P12-Ichikawa [2], HPLM + 10% dialyzed FBS, 5.12 µM | 122
P12-Ichikawa [2], HPLM + 10% dialyzed FBS, 15.4 µM | 115
P12-Ichikawa [2], HPLM + 10% dialyzed FBS, 46.1 µM | 7.37
SEM cells [1], RPMI 5 mM glucose + 10% FBS, 0.000781 µM | 110
SEM cells [1], RPMI 5 mM glucose + 10% FBS, 0.00234 µM | 116
SEM cells [1], RPMI 5 mM glucose + 10% FBS, 0.00702 µM | 117
SEM cells [1], RPMI 5 mM glucose + 10% FBS, 0.0211 µM | 143
SEM cells [1], RPMI 5 mM glucose + 10% FBS, 0.0632 µM | 147
SEM cells [1], RPMI 5 mM glucose + 10% FBS, 0.19 µM | 127
SEM cells [1], RPMI 5 mM glucose + 10% FBS, 0.569 µM | 135
SEM cells [1], RPMI 5 mM glucose + 10% FBS, 1.71 µM | 113
SEM cells [1], RPMI 5 mM glucose + 10% FBS, 5.12 µM | 121
SEM cells [1], RPMI 5 mM glucose + 10% FBS, 15.4 µM | 89
SEM cells [1], RPMI 5 mM glucose + 10% FBS, 46.1 µM | 7.67

AUC of viability dose-response curve
Conditions | NOMO1 [5] | P12-Ichikawa [4] | SEM cells [3]
HPLM + 10% dialyzed FBS | 443 | 451 | 450
RPMI 5 mM glucose + 10% FBS | 449 | 451 | 440
RPMI 5 mM glucose + 10% dialyzed FBS | 444 | 450 | 451

O=C1CC[C@@]2(O)[C@H]3Cc4ccc(O)c5c4[C@@]2(CCN3CC2CC2)[C@H]1O5
AUC of viability dose-response curve
Conditions | NOMO1 [5] | P12-Ichikawa [4] | SEM cells [3]
HPLM + 10% dialyzed FBS | 419 | 459 | 469
RPMI 5 mM glucose + 10% FBS | 411 | 474 | 451
RPMI 5 mM glucose + 10% dialyzed FBS | 434 | 469 | 463

N\C1=N\C2=C(N=C[N]2COC(CO)CO)C(=O)N1
cell viability [%]
Conditions | NOMO1 [6] | P12-Ichikawa [2] | SEM cells [1]
HPLM + 10% dialyzed FBS, 0.000781 µM | 88.7 | 107 | 103
HPLM + 10% dialyzed FBS, 0.00234 µM | 110 | 108 | 98.8
HPLM + 10% dialyzed FBS, 0.00702 µM | 116 | 109 | 96.8
HPLM + 10% dialyzed FBS, 0.0211 µM | 114 | 113 | 111
HPLM + 10% dialyzed FBS, 0.0632 µM | 131 | 115 | 97
HPLM + 10% dialyzed FBS, 0.19 µM | 120 | 115 | 104
HPLM + 10% dialyzed FBS, 0.569 µM | 133 | 119 | 108
HPLM + 10% dialyzed FBS, 1.71 µM | 109 | 120 | 108
HPLM + 10% dialyzed FBS, 5.12 µM | 110 | 119 | 104
HPLM + 10% dialyzed FBS, 15.4 µM | 92.2 | 116 | 82.4
HPLM + 10% dialyzed FBS, 46.1 µM | 5.43 | 5.18 | 3.99
RPMI 5 mM glucose + 10% FBS, 0.000781 µM | 110 | 104 | 83.9
RPMI 5 mM glucose + 10% FBS, 0.00234 µM | 119 | 102 | 78.2
RPMI 5 mM glucose + 10% FBS, 0.00702 µM | 114 | 112 | 92.2
RPMI 5 mM glucose + 10% FBS, 0.0211 µM | 118 | 119 | 93.2
RPMI 5 mM glucose + 10% FBS, 0.0632 µM | 103 | 121 | 94.9
RPMI 5 mM glucose + 10% FBS, 0.19 µM | 107 | 110 | 96.3
RPMI 5 mM glucose + 10% FBS, 0.569 µM | 121 | 124 | 88.2
RPMI 5 mM glucose + 10% FBS, 1.71 µM | 110 | 124 | 87.4
RPMI 5 mM glucose + 10% FBS, 5.12 µM | 116 | 117 | 76
RPMI 5 mM glucose + 10% FBS, 15.4 µM | 101 | 107 | 64.8
RPMI 5 mM glucose + 10% FBS, 46.1 µM | 4.52 | 3.39 | 2.7
RPMI 5 mM glucose + 10% dialyzed FBS, 0.000781 µM | 99.5 | 101 | 94.6
RPMI 5 mM glucose + 10% dialyzed FBS, 0.00234 µM | 112 | 98.3 | 98.7
RPMI 5 mM glucose + 10% dialyzed FBS, 0.00702 µM | 99.5 | 108 | 105
RPMI 5 mM glucose + 10% dialyzed FBS, 0.0211 µM | 102 | 118 | 108
RPMI 5 mM glucose + 10% dialyzed FBS, 0.0632 µM | 122 | 106 | 106
RPMI 5 mM glucose + 10% dialyzed FBS, 0.19 µM | 117 | 116 | 108
RPMI 5 mM glucose + 10% dialyzed FBS, 0.569 µM | 117 | 113 | 113
RPMI 5 mM glucose + 10% dialyzed FBS, 1.71 µM | 112 | 109 | 103
RPMI 5 mM glucose + 10% dialyzed FBS, 5.12 µM | 99.8 | 112 | 115
RPMI 5 mM glucose + 10% dialyzed FBS, 15.4 µM | 95.5 | 109 | 94.7
RPMI 5 mM glucose + 10% dialyzed FBS, 46.1 µM | 3.67 | 4.18 | 4.17

AUC of viability dose-response curve
Conditions | HPLM + 10% dialyzed FBS | RPMI 5 mM glucose + 10% FBS | RPMI 5 mM glucose + 10% dialyzed FBS
NOMO1 [5] | 445 | 449 | 448
SEM cells [3] | 444 | 387 | 449

CCOC1=CC(=CC=C1C/2=N/[C@@](C)(C3=CC=C(Cl)C=C3)[C@](C)(N2C(=O)N4CCN(CC4)CC(=O)N5CCOCC5)C6=CC=C(Cl)C=C6)C(C)(C)C
cell viability [%]
Conditions | NOMO1 [6] | P12-Ichikawa [2] | SEM cells [1]
HPLM + 10% dialyzed FBS, 0.000781 µM | – | 104 | 82.5
HPLM + 10% dialyzed FBS, 0.00234 µM | – | 104 | 107
HPLM + 10% dialyzed FBS, 0.00702 µM | – | 101 | 108
HPLM + 10% dialyzed FBS, 0.0211 µM | – | 99.7 | 107
HPLM + 10% dialyzed FBS, 0.0632 µM | – | 101 | 117
HPLM + 10% dialyzed FBS, 0.19 µM | – | 102 | 106
HPLM + 10% dialyzed FBS, 0.569 µM | – | 104 | 105
HPLM + 10% dialyzed FBS, 1.71 µM | – | 101 | 93.5
HPLM + 10% dialyzed FBS, 5.12 µM | – | 101 | 81.1
HPLM + 10% dialyzed FBS, 15.4 µM | – | 82.9 | 66
HPLM + 10% dialyzed FBS, 46.1 µM | – | 87.1 | 71
RPMI 5 mM glucose + 10% FBS, 0.000781 µM | 93.3 | 104 | –
RPMI 5 mM glucose + 10% FBS, 0.00234 µM | 90.6 | 106 | –
RPMI 5 mM glucose + 10% FBS, 0.00702 µM | 96.3 | 97.9 | –
RPMI 5 mM glucose + 10% FBS, 0.0211 µM | 105 | 109 | –
RPMI 5 mM glucose + 10% FBS, 0.0632 µM | 112 | 112 | –
RPMI 5 mM glucose + 10% FBS, 0.19 µM | 121 | 108 | –
RPMI 5 mM glucose + 10% FBS, 0.569 µM | 98.6 | 101 | –
RPMI 5 mM glucose + 10% FBS, 1.71 µM | 99.3 | 103 | –
RPMI 5 mM glucose + 10% FBS, 5.12 µM | 102 | 92.2 | –
RPMI 5 mM glucose + 10% FBS, 15.4 µM | 91.6 | 97.6 | –
RPMI 5 mM glucose + 10% FBS, 46.1 µM | 97 | 89.9 | –
RPMI 5 mM glucose + 10% dialyzed FBS, 0.000781 µM | 92.6 | 109 | 112
RPMI 5 mM glucose + 10% dialyzed FBS, 0.00234 µM | 113 | 110 | 99.8
RPMI 5 mM glucose + 10% dialyzed FBS, 0.00702 µM | 102 | 112 | 108
RPMI 5 mM glucose + 10% dialyzed FBS, 0.0211 µM | 102 | 107 | 111
RPMI 5 mM glucose + 10% dialyzed FBS, 0.0632 µM | 126 | 99.2 | 107
RPMI 5 mM glucose + 10% dialyzed FBS, 0.19 µM | 120 | 102 | 109
RPMI 5 mM glucose + 10% dialyzed FBS, 0.569 µM | 124 | 107 | 116
RPMI 5 mM glucose + 10% dialyzed FBS, 1.71 µM | 100 | 97.6 | 109
RPMI 5 mM glucose + 10% dialyzed FBS, 5.12 µM | 81.8 | 99.7 | 90.2
RPMI 5 mM glucose + 10% dialyzed FBS, 15.4 µM | 90.1 | 89.8 | 65.2
RPMI 5 mM glucose + 10% dialyzed FBS, 46.1 µM | 86.2 | 97.7 | 61.4

AUC of viability dose-response curve
Conditions | HPLM + 10% dialyzed FBS | RPMI 5 mM glucose + 10% FBS | RPMI 5 mM glucose + 10% dialyzed FBS
P12-Ichikawa [4] | 465 | 461 | 443
SEM cells [3] | 436 | 432 | 439

Nc1cc(c(cc1S(=O)(N)=O)S(N)(=O)=O)C(/Cl)=C(/Cl)Cl
SEM cells [1], HPLM + 10% dialyzed FBS
Conditions | cell viability [%]
0.000781 µM | 110
0.00234 µM | 124
0.00702 µM | 140
0.0211 µM | 124
0.0632 µM | 128
0.19 µM | 120
0.569 µM | 132
1.71 µM | 126
5.12 µM | 86.4
15.4 µM | 10.4
46.1 µM | 9.94

AUC of viability dose-response curve
Conditions | NOMO1 [5] | P12-Ichikawa [4] | SEM cells [3]
HPLM + 10% dialyzed FBS | 344 | 335 | 396
RPMI 5 mM glucose + 10% FBS | 399 | 396 | 363
RPMI 5 mM glucose + 10% dialyzed FBS | 406 | 390 | 379

CCCCC[C@H](O)/C=C/[C@H]1[C@H](O)CC(=O)[C@@H]1C/C=C\CCCC(=O)O
AUC of viability dose-response curve
Conditions | NOMO1 [5] | P12-Ichikawa [4] | SEM cells [3]
HPLM + 10% dialyzed FBS | 449 | 460 | 456
RPMI 5 mM glucose + 10% FBS | 453 | 457 | 458
RPMI 5 mM glucose + 10% dialyzed FBS | 440 | 457 | 460
